Test results published in US7745450B2, “Pyrazolo[4,3-d]pyrimidines, processes for their preparation and methods for therapy” (Institute of Experimental Botany, priority 2002, dated 2010).
Like-named read-outs stand apart in the source and are kept apart here.

Key:
cdk1/cyclin B (CDC2) = cdk1/cyclin B (CDC2) (Homo sapiens, UniProt P06493); assay: CDK inhibition assay, cdk1/cyclin B (CDC2) kinase, histone phosphorylation; assay type: biochemical
Procedure: Selected compounds were tested for cdk1/cyclin B and cdk2/cyclin E inhibitory activity to determine the basic relationships between their interaction energy of docked complex and the inhibitory activity. Cdk2/cyclin E complex was produced in SIP insect cells co-infected with appropriate baculoviral construct. The cells were harvested 70 hours post infection in lysis buffer (50 mM Tris 7.4 pH, 150 mM NaCl, 5 mM EDTA, 20 mM NaF, 1% Tween 20, protease inhibitors) for 30 min on ice and the soluble fraction was recovered by centrifugation at 14.000 g for 10 min. The protein extract was stored at −80° C. until use. The final point test system for kinase activity measurement was used to carry out experiments on the kinetics under linear conditions. The assay mixture contained 1 mg/ml histone (Sigma Type III-S), 15 μM ATP, 0.2 μCi [γ-^32P] ATP and tested compound in a final volume of 20 μl, all in reaction buffer: 50 mM Hepes 7.4 pH, 10 mM MgCl2, 5 mM EGTA, 10 mM 2-glycerolphosphate, 1 mM NaF, 1 mM DTT and protease inhibitors. […] The measurement of kinase inhibition employed the digital imaging analyzer BAS 1800. The kinase activity was expressed as a percentage of maximum activity and the IC50 value was determined by graphic analysis. The kinase activity is expressed as a percentage of maximum activity, the apparent inhibition constants are determined by graphic analysis from dose-response curves presented on FIG. 1.

[1] = system: Cytokinin-dependent tobacco callus Nicotiana tabacum L. cv. Wisconsins 38; assay: Tobacco callus bioassay for cytotoxicity (herbicidal activity); assay type: cell-based; conditions: Nicotiana tabacum, 672 h
Procedure: The novel compounds have also been tested in tobacco callus bioassay for cytotoxicity (herbicidal activity) and induction of cell death. The compounds to be tested were dissolved in dimethylsulfoxide (DMSO) and the solution brought up to 10^−3 M with distilled water. […] Cytokinin-dependent tobacco callus Nicotiana tabacum L. cv. Wisconsins 38 Murashige-Skoog medium, containing per 1 liter: 4 μmol nicotinic acid, 2.4 μmol pyridoxine hydrochloride, 1.2 μmol thiamine, 26.6 μmol glycine, 1.37 μmol glutamine, 1.8 μmol myo.inositol, 30 g of sucrose, 8 g of agar, […] α-naphthylacetic acid and 0.5 μmol 6-benzylaminopurine. Sub cultivation was carried out every three weeks. Fourteen days before the bioassay, the callus tissue was transferred to the media without 6-benzylaminopurine. Compounds were tested with two different concentrations of 6-benzylaminopurine (10^−5 M and 10^−6 M). Inhibitory growth activity was determined from the increase in fresh callus weight after four weeks of cultivation. Five replicates were prepared for each concentration tested and the entire test was repeated at least twice.

IκB-α kinase = IκB-α kinase inhibition, in vitro kinase assay; assay type: biochemical
[2] = read-out: 10^−5 M BAP IC50, 10^−5 M 6-benzylaminopurine, four weeks
[3] = read-out: 10^−6 M BAP IC50, 10^−6 M 6-benzylaminopurine, four weeks

cdk1/cyclin B (CDC2), sequence (P06493 whole entry, species assumed): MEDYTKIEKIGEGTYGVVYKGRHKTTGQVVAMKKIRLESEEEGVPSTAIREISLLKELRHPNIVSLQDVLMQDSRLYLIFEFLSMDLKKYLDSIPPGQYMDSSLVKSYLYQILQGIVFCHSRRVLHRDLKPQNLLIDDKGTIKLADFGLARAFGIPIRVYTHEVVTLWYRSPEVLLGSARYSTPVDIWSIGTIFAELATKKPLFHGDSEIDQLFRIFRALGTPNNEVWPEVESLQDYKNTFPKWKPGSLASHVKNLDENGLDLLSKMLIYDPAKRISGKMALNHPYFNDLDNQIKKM
cdk1/cyclin B (CDC2), sequence (P14635 whole entry partner, species assumed): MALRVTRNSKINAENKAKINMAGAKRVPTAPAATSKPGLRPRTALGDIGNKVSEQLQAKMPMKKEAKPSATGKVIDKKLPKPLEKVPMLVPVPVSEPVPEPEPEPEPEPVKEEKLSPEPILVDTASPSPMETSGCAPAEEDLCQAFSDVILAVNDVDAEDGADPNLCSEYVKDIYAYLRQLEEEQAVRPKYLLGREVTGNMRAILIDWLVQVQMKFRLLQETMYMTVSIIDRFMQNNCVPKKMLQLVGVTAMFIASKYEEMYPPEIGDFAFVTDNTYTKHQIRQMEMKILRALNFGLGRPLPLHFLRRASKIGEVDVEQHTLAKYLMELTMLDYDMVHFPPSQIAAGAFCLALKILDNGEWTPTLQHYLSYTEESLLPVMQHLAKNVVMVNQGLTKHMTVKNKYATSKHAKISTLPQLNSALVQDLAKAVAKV

Compound	IC50 (cdk1/cyclin B (CDC2)) [nM]	IC50 [1, 2] [nM]	IC50 [1, 3] [nM]	IC50 (IκB-α kinase) [nM]
CC(C)c1n[nH]c2c(Nc3ccc(Cl)cc3)nc(N[C@@H](CO)C(C)C)nc12	0.5	24000	2300	1
Cc1n[nH]c2c(NCc3ccccc3)nc(NCCCN)nc12 [3-aminopropylamino; benzylamino; methyl]	200	> 50000	45000	400
CC[C@H](CO)Nc1nc(NCc2cccc(OC)c2O)c2[nH]nc(C(C)C)c2n1	4	> 50000	14800	12
CC[C@H](CO)Nc1nc(Nc2ccc(O)c(C(=O)O)c2)c2[nH]nc(C(C)C)c2n1	10	> 50000	> 50000	30
CC[C@H](CO)Nc1nc(Nc2ccc(Br)cc2)c2[nH]nc(C(C)C)c2n1	2	38000	4300	10
Cc1n[nH]c2c(NCc3ccccc3)nc(N[C@@H](CO)C(C)C)nc12	10	> 50000	28000	20
Cc1cccc(CNc2nc(N[C@@H](CO)C(C)C)nc3c(C(C)C)n[nH]c23)c1O	1	> 50000	10700	2
CC(C)c1n[nH]c2c(NCc3c(N)cccc3Cl)nc(N[C@@H](CO)C(C)C)nc12	0.9	38000	3700	2
CC[C@H](CO)Nc1nc(Nc2ccc(Cl)c(N)c2)c2[nH]nc(C(C)C)c2n1	4	26000	1500	13
Cc1n[nH]c2c(NCc3ccccc3)nc(NC3CCCCC3N)nc12 (centres unmarked)	30	> 50000	48000	90
CC[C@H](CO)Nc1nc(NCc2c(N)cccc2Cl)c2[nH]nc(C(C)C)c2n1	12	> 50000	29700	3.5
CC(C)c1n[nH]c2c(NCc3ccccc3)nc(N[C@@H](CO)C(C)C)nc12	4	> 50000	14000	10
CC(C)c1n[nH]c2c(Nc3ccccc3)nc(N[C@@H](CO)C(C)C)nc12	1	42000	4800	3
CC(C)c1n[nH]c2c(NCc3cccc(Cl)c3O)nc(N[C@@H](CO)C(C)C)nc12	2	> 50000	9400	4
CC[C@H](CO)Nc1nc(NCc2ccccc2)c2[nH]nc(C(C)C)c2n1	10	> 50000	28000	30
CC(C)c1n[nH]c2c(NCc3ccc(Cl)c(N)c3)nc(N[C@@H](CO)C(C)C)nc12	2	> 50000	19400	3
CC(C)c1n[nH]c2c(NCc3ccc(Cl)c(N)c3N)nc(N[C@@H](CO)C(C)C)nc12	20	15600	400	40
CC(=O)Oc1cccc(CNc2nc(N[C@@H](CO)C(C)C)nc3c(C(C)C)n[nH]c23)c1	20	36000	8500	60
CC(C)c1n[nH]c2c(Nc3ccc(Br)cc3)nc(N[C@@H](CO)C(C)C)nc12	2	> 50000	> 50000	3
CC[C@H](CO)Nc1nc(NCc2ccccc2OC(C)=O)c2[nH]nc(C(C)C)c2n1	100	45000	12400	200
